Experiment [1] concerns Plasmodium falciparum. In words: Antimalarial activity against chloroquine-resistant Plasmodium falciparum FcB1/Columbia infected in human erythrocytes assessed as reduction in [3H]-hypoxanthine incorporation pretreated for 24 hrs followed by [3H]-hypoxanthine addition measured after 24 hrs by liquid scintillation counting method. Format: functional, organism-based.
Experiment [2] has as its system MRC5. In words: Growth inhibition of human MRC5 cells after 72 hrs by resazurin dye based spectrophotometric method assay. Format: cell-based. As to conditions: MRC5, 72 h.

Molecules are shown by their SMILES. Some results are limits rather than exact numbers.

IC50 data for seven compounds are collected here from ChEMBL document CHEMBL4610067, “Molecular Networking Reveals Serpentinine-Related Bisindole Alkaloids from Picralima nitida, a Previously Well-Investigated Species” (J Nat Prod, 2020).

For orientation: IC50 means the midpoint of a concentration-inhibition curve. As to `COC(=O)CCc1c[n+]2c(c3[nH]c4ccccc4c13)C[C@@H]1C(C(=O)OC)=CO[C@@H](C)[C@@H]1C2`, in experiment [1], the half-maximal inhibitory concentration (IC50) was found to be 3 µM.

As to `C/C=C1/CN2CCc3c([nH]c4ccccc34)[C@@H]2C[C@@H]1[C@H](Cc1c[n+]2c(c3[nH]c4ccccc4c13)C[C@H](CCO)[C@@H](CC)C2)C(=O)OC`, the concentration for half-maximal inhibition (IC50) is 8.7 µM in experiment [1] and more than 50 µM in experiment [2].

Take `C/C=C1/C[n+]2cc(C[C@H](C(=O)OC)[C@H]3C[C@H]4c5[nH]c6ccccc6c5CCN4C/C3=C/C)c3c([nH]c4ccccc43)c2C[C@@H]1CCO`: the half-inhibitory concentration (IC50) was 9.5 µM in experiment [1] and more than 50 µM in experiment [2].

Consider `C/C=C1/CN2CCc3c([nH]c4ccc(O)cc34)[C@@H]2C[C@@H]1CCO`, for which the half-maximal inhibitory concentration (IC50) in experiment [1] is 99 µM; in experiment [2] it was more than 50 µM.

`C/C=C1/C[n+]2ccc3c([nH]c4ccccc43)c2C[C@@H]1CCO`: the IC50 was 19.5 µM in experiment [1] and more than 50 µM in experiment [2].

On to `C/C=C1/CN2CCc3c([nH]c4ccccc34)[C@@H]2C[C@@H]1[C@H](Cc1c[n+]2c(c3[nH]c4ccccc4c13)C[C@@H]1C(C(=O)OC)=CO[C@@H](C)[C@@H]1C2)C(=O)O`, for which the half-inhibitory concentration (IC50) in experiment [1] was 5.2 µM; in experiment [2] it was more than 50 µM.

Regarding `C/C=C1/CN2CCc3c([nH]c4ccccc34)[C@@H]2C[C@@H]1[C@H](Cc1c[n+]2c(c3[nH]c4ccccc4c13)C[C@@H]1C(C(=O)OC)=CO[C@@H](C)[C@@H]1C2)C(=O)OC`, the half-inhibitory concentration (IC50) in experiment [1] was 2.6 µM; in experiment [2] it was more than 50 µM.
